# Test results published in paper PMC3440086, “Profiling Environmental Chemicals for Activity in the Antioxidant Response Element Signaling Pathway Using a High Throughput Screening Approach” (Environmental Health Perspectives, 2012).
# Entries after “also recorded” stand apart in the source; their conditions may differ. Like-named read-outs stand apart in the source and are kept apart here.
# Legend:
# [1] = system: Nrf2-dependent ARE transcriptional activity; test: ARE-luc luciferase reporter gene assay in HepG2 cells (qHTS); assay type: cell-based; set-up: Emax: reference not given here; details: for EC50: read-out: ARE-luc EC50
# [2] = system: olfactory mucosa; set-up: method as in Genter et al. 2002; details: olfactory mucosa of treated rats; ref Genter et al. 2002; cited from earlier work
# [3] = system: mutated ARE; assay type: cell-based; details: for activity in ARE-bla-mut assay (words): follow-up studies, up to 46 µM
# [4] = system: antioxidant response element (ARE) signaling pathway; test: ARE-bla β-lactamase reporter gene assay in HepG2 cells (qHTS); assay type: cell-based, human; details: for EC50: read-out: ARE-bla EC50
# [5] = system: mitogen-activated protein kinase (MAPK) pathway; details: cited from earlier work
# [6] = system: ROS; set-up: method as in Chen et al. 2009; details: cell-based testing; ref Chen et al. 2009; cited from earlier work
# [7] = system: hypoxia-inducible factor 1; set-up: method as in Xia et al. 2009; details: β-lactamase reporter gene assay; ref Xia et al. 2009; cited from earlier work
# [8] = Homo sapiens, HepG2, confirmation/follow-up studies, activation of ARE reporter as % of positive control (β-napthoflavone), read-out: ARE-luc Efficacy
# [9] = Homo sapiens, confirmation/follow-up studies, HepG2, 16 hr exposure, mean ± SD
# [10] = confirmation/follow-up studies, HepG2, mean ± SD
# [11] = Homo sapiens, HepG2, confirmation/follow-up studies, activation of ARE reporter as % of positive control (β-napthoflavone), read-out: ARE-bla Efficacy
# [12] = confirmation/follow-up studies, HepG2, 16 hr exposure, mean ± SD
# [13] = confirmation/follow-up studies, […]
# [14] = Homo sapiens, HepG2, confirmation/follow-up studies, […], read-out: ARE-luc Efficacy
# [15] = Homo sapiens, HepG2, confirmation/follow-up studies, […], read-out: ARE-bla Efficacy
# [16] = primary qHTS screening, 0.59 nM to 92 µM
# [17] = follow-up studies, up to 46 µM, listed as 3-dimethylaminophenol
# [18] = follow-up studies, up to 46 µM, listed as iodochlorohydroxyquinoline
compound,measurement,setting,value
CCc1cccc(CC)c1N(COC)C(=O)CCl [Alachlor],Emax,[1]; [8],127%
same,EC50,[1]; [9],19.9 ± 7.1 µM
same,activity in ARE-luc assay (words),"[1]; follow-up studies, up to 46 µM",active; also recorded: demonstrated activity
same,genes associated with the generation of ROS and resulting oxidative damage,[2],up-regulation
same,ARE-bla mutant IC50,[3]; [10],inactive
same,Emax,[4]; [11],106%
same,EC50,[4]; [9],5.9 ± 1.7 µM
same,activity in ARE-bla assay (words),"[4]; follow-up studies, up to 46 µM",active; also recorded: demonstrated activity
Oc1cccc2cccnc12 [8-Hydroxyquinoline],activity in ARE-luc assay (words),[1],active; also recorded: demonstrated activity
same,EC50,"[1]; Homo sapiens, HepG2, 16 h",10.1 ± 3.9 µM
same,Emax,"[1]; Homo sapiens, HepG2, read-out: ARE-luc Efficacy",200%
same,ARE-bla mutant IC50,[3],inactive
same,induction of MAPK pathway,[5],shown to induce
same,activity in ARE-bla assay (words),[4],active; also recorded: demonstrated activity
same,EC50,"[4]; Homo sapiens, HepG2, 16 h",16.1 ± 5.1 µM
same,Emax,"[4]; Homo sapiens, HepG2, read-out: ARE-bla Efficacy",53%
"CCN(CC)c1ccc(N)cc1 [N,N-Diethyl-p-phenylenediamine]",ARE-luc EC50,[1]; [12],inactive
same,ARE-bla mutant IC50,[3]; [10],inactive
same,EC50,[4]; [12],18.7 ± 7.6 µM
same,ARE-bla Efficacy,[4]; [13],60%
CN1CSC(=S)N(C)C1 [Dazomet],Emax,[1]; [14],22%
same,EC50,[1]; [9],26.6 ± 2.2 µM
same,ARE-bla mutant IC50,[3]; [10],inactive
same,Emax,[4]; [15],55%
same,EC50,[4]; [9],20.1 ± 6.6 µM
"CC(C)CC(C)Nc1ccc(Nc2ccccc2)cc1 (centres unmarked) [n-(1,3-Dimethylbutyl)-n`-phenyl-p-phenylenediamine]",activity in ARE-luc assay (words),"[1]; follow-up studies, up to 46 µM",inactive
same,activity in ARE-luc assay (words),[1]; [16],active
same,ARE-bla mutant IC50,[3]; [10],inactive
same,Emax,[4]; [11],89%
same,EC50,[4]; [9],17.3 ± 5 µM
c1ccc2c(c1)-c1cccc3cccc-2c13 [Fluoranthene],ARE-luc EC50,[1],inactive
same,ARE-bla mutant IC50,[3],inactive
same,ARE-bla EC50,[4],inactive
"CN(C)c1ccc(N)cc1 [N,N-Dimethyl-p-phenylenediamine]",Emax,[1]; [14],24%
same,EC50,[1]; [9],11.8 ± 4.4 µM
same,ARE-bla mutant IC50,[3]; [10],inactive
same,Emax,[4]; [15],80%
same,EC50,[4]; [9],9.6 ± 0.6 µM
Nc1ccccc1N [o-Phenylenediamine],EC50,[1]; [12],27.3 ± 4.7 µM
same,ARE-luc Efficacy,[1]; [13],151%
same,ARE-bla mutant IC50,[3]; [10],inactive
same,EC50,[4]; [12],7.2 ± 4.1 µM
same,ARE-bla Efficacy,[4]; [13],72%
Cc1cccc2sc(N)nc12 [2-Amino-4-methylbenzothiazole],ARE-luc EC50,[1]; [12],inactive
same,ARE-bla mutant IC50,[3]; [10],inactive
same,Emax,[4]; [11],49%
same,EC50,[4]; [9],10.1 ± 2.1 µM
same,activity in ARE-bla assay (words),"[4]; follow-up studies, up to 46 µM",active only in the ARE-bla assay
CN(C)c1cccc(O)c1 [3-Dimethylaminophenol],activity in ARE-luc assay (words),"[1]; follow-up studies, up to 46 µM",inactive in all assays
same,activity in ARE-luc assay (words),[1]; [17],inactive
same,ARE-bla mutant IC50,[3]; [10],inactive
same,activity in ARE-bla-mut assay (words),[3],inactive in all assays
same,activity in ARE-bla assay (words),"[4]; follow-up studies, up to 46 µM",inactive in all assays
same,activity in ARE-bla assay (words),[4]; [17],inactive
Oc1c(I)cc(Cl)c2cccnc12 [Iodochlorohydroxyquinoline],Emax,[1]; [8],147%
same,EC50,[1]; [9],10 ± 1.2 µM
same,activity in ARE-luc assay (words),"[1]; follow-up studies, up to 46 µM",active
same,activity in ARE-luc assay (words),[1]; [18],demonstrated activity
same,ARE-bla mutant Efficacy,"[3]; confirmation/follow-up studies, normalized to DMSO (0%) and ARE-bla maximal β-napthoflavone response (100%)",21%
same,activity in ARE-bla-mut assay (words),[3]; listed as iodochlorohydroxyquinoline,may exhibit autofluorescence; also recorded: active; also recorded: demonstrated activity
same,generation of ROS,[6],confirmed
same,Emax,[4]; [11],41%
same,EC50,[4]; [9],17.2 ± 6 µM
same,activity in ARE-bla assay (words),"[4]; follow-up studies, up to 46 µM",active
same,activity in ARE-bla assay (words),[4]; [18],demonstrated activity
same,activation of hypoxia-inducible factor 1,[7],activate
[Cd+2].[Cl-].[Cl-] [Cadmium II chloride],ARE-luc Efficacy,[1],446
same,EC50,[1],1.1 ± 0.1 µM
same,ARE-bla mutant IC50,[3],inactive
same,ARE-bla EC50,[4],inactive
CCOCN(C(=O)CCl)c1c(C)cccc1CC [Acetochlor],Emax,[1]; [8],78%
same,EC50,[1]; [9],21.9 ± 5.3 µM
same,activity in ARE-luc assay (words),"[1]; follow-up studies, up to 46 µM",active; also recorded: demonstrated activity
same,activity in ARE-luc assay (words),[1]; [16],high-quality active
same,ARE-bla mutant IC50,[3]; [10],inactive
same,Emax,[4]; [11],86%
same,EC50,[4]; [9],4.7 ± 1.6 µM
same,activity in ARE-bla assay (words),"[4]; follow-up studies, up to 46 µM",active; also recorded: demonstrated activity
same,activity in ARE-bla assay (words),[4]; [16],high-quality active
O=C(O)C1C(C(=O)O)C2(Cl)C(Cl)=C(Cl)C1(Cl)C2(Cl)Cl (centres unmarked) [Chlorendic acid],ARE-luc EC50,[1],inactive
same,ARE-bla mutant IC50,[3],inactive
same,ARE-bla EC50,[4],inactive
ClC1=C(Cl)[C@]2(Cl)[C@@H]3[C@@H]4C[C@@H]([C@H]5O[C@@H]45)[C@@H]3[C@@]1(Cl)C2(Cl)Cl [Dieldrin],Emax,[1]; [14],27%
same,EC50,[1]; [9],14.2 ± 15 µM
same,ARE-bla mutant IC50,[3]; [10],inactive
same,Emax,[4]; [15],40%
same,EC50,[4]; [9],15.5 ± 11.8 µM
CN(C)C(=S)SSC(=S)N(C)C [Tetramethylthiuram disulfide],EC50,[1]; [12],30.6 ± 5.2 µM
same,ARE-luc Efficacy,[1]; [13],265%
same,ARE-bla mutant IC50,[3]; [10],inactive
same,EC50,[4]; [12],17.2 ± 4.9 µM
same,ARE-bla Efficacy,[4]; [13],35%
O=Nc1ccc(Nc2ccccc2)cc1 [p-Nitrosodiphenylamine],ARE-luc Efficacy,[1],71
same,EC50,[1],21.7 ± 3.7 µM
same,ARE-bla mutant IC50,[3],inactive
same,ARE-bla Efficacy,[4],31
same,EC50,[4],9.7 ± 4.1 µM
"O=[N+]([O-])c1cc(Cl)c(Cl)c(Cl)c1Cl [2,3,4,5-Tetrachloronitrobenzene]",Emax,[1]; [8],124%
same,EC50,[1]; [9],27.7 ± 6.7 µM
same,ARE-bla mutant IC50,[3]; [10],inactive
same,Emax,[4]; [11],56%
same,EC50,[4]; [9],9.4 ± 3.2 µM
[Cl][In]([Cl])[Cl] [Indium trichloride],EC50,[1]; [12],25 µM
same,ARE-luc Efficacy,[1]; [13],312%
same,ARE-bla mutant IC50,[3]; [10],inactive
same,EC50,[4]; [12],14.8 ± 4.9 µM
same,ARE-bla Efficacy,[4]; [13],92%
